# Test results published in patent US20170327598A1, “SINGLE DOMAIN ANTIBODIES DIRECTED AGAINST INTRACELLULAR ANTIGENS” (SINGH MOLECULAR MEDICINE, LLC, priority 2014, published 2017).
# “And” between values parts separate entries of the source, which are not always exact repeats. Identical values can stand only once.
# Key:
# [1] = tested on: STAT3 reporter, induction by interleukin-6; experiment: STAT3 reporter GloResponse SIE-luc2P/HEK293 cell assay, IL-6 induction; type: cell-based;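 also: IL-6 added at 40 ng/mL (EC80) for roughly one day after pretreatment, luciferase luminescence read with Bio-Glo reagent, untreated +IL6 wells serve as control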
# [2] = tested on: GloResponse SIE-luc2P/HEK 293 cells; experiment: BCA protein concentration of reporter cells run in parallel; type: cell-based
# [3] = tested on: PANC-1 cells; experiment: PANC-1 growth inhibition with or without Gemcitabine; conditions: for Absorbance: 72 hours
# [4] = tested on: PANC-1 xenograft; experiment: PANC-1 xenograft, sdAb alone, Gemcitabine alone or combination, Example 19; conditions: for BODY WEIGHT (g) Mean / TUMOR VOLUMES (mm^3) Mean / % INHIBITION OF CONTROL (tumor growth): SBT-100 5 mg/kg BID, Gemcitabine 20 mg/kg, or both
# [5] = 24 Hour Treatment Prior to IL6 Induction, high conc.: VHH13 55.8 μg/mL, VHH14 84.3 μg/mL, BB1608 4.16 μM, VHH69 50.5 μg/mL
# [6] = 24 Hour Treatment Prior to IL6 Induction, low conc.: VHH13, VHH14, VHH69 10 μg/mL, BB1608 2 μM
# [7] = 48 Hour Treatment Prior to IL6 Induction, high conc.: VHH13 55.8 μg/mL, VHH14 84.3 μg/mL, BB1608 4.16 μM, VHH69 50.5 μg/mL
# [8] = 48 Hour Treatment Prior to IL6 Induction, low conc.: VHH13, VHH14, VHH69 10 μg/mL, BB1608 2 μM
smiles,measurement,setting,value
"CC(=O)c1cc2c(o1)C(=O)c1ccccc1C2=O [BB1608, napabucasin, reference compound]",Average RLU,[1]; [5],33 RLU
same,Average RLU with Media Blank,[1]; [5],8 RLU
same,Fold-Induction RLU/RLU of-IL6,[1]; [5],0
same,"Luminescence (RLU), single wells",[1]; [5],41 RLU and 28 RLU and 31 RLU
same,Average RLU,[1]; [6],38 RLU
same,Average RLU with Media Blank,[1]; [6],12 RLU
same,Fold-Induction RLU/RLU of-IL6,[1]; [6],0
same,"Luminescence (RLU), single wells",[1]; [6],41 RLU and 33 RLU and 39 RLU
same,Average RLU,[1]; [7],29 RLU
same,Average RLU with Media Blank,[1]; [7],−3 RLU
same,Fold-Induction RLU/RLU of−IL6,[1]; [7],0
same,"Luminescence (RLU), single wells",[1]; [7],25 RLU and 31 RLU and 32 RLU
same,Average RLU,[1]; [8],33 RLU
same,Average RLU with Media Blank,[1]; [8],0 RLU
same,Fold-Induction RLU/RLU of−IL6,[1]; [8],0
same,"Luminescence (RLU), single wells",[1]; [8],26 RLU and 42 RLU and 31 RLU
same,effect on IL-6 induction of STAT3 reporter,[1]; 24 hours and 48 hours treatment prior to IL-6,Inhibition of IL-6
same,Protein concentration,[2]; [5],174
same,Protein concentration,[2]; [6],425
same,Protein concentration,[2]; [7],165
same,Protein concentration,[2]; [8],324
Nc1ccn([C@@H]2O[C@H](CO)[C@@H](O)C2(F)F)c(=O)n1 [Gemcitabine],Absorbance,[3]; Gemcitabine 0.020 μM in DMSO,1.560
same,Absorbance,[3]; Gemcitabine 0.039 μM in DMSO,1.240
same,Absorbance,[3]; Gemcitabine 0.625 μM in DMSO,1.050
same,Absorbance,[3]; Gemcitabine 5 μM in DMSO,0.631
same,Absorbance,[3]; Gemcitabine 10 μM in DMSO,0.543
same,IC50,"[3]; Homo sapiens, PANC-1, read-out: IC50 concentration",10 µM
same,Mean Tumour Size (mm^3) Day 1,"[4]; Day 1 (start of treatment), SBT-100 5 mg/kg IP BID × 14, Gemcitabine 20 mg/kg IP QD × 7, or both",122.23 ± 23.46 mm^3
same,BODY WEIGHT (g) Mean,[4]; Day 1,23.77 g
same,TUMOR VOLUMES (mm^3) Mean,[4]; Day 1,122.23 mm^3
same,BODY WEIGHT (g) Mean,[4]; Day 5,23.47 g
same,TUMOR VOLUMES (mm^3) Mean,[4]; Day 5,165.57 mm^3
same,BODY WEIGHT (g) Mean,[4]; Day 8,23.37 g
same,TUMOR VOLUMES (mm^3) Mean,[4]; Day 8,183.88 mm^3
same,% INHIBITION OF CONTROL (tumor growth),[4]; Day 12,19.51%
same,BODY WEIGHT (g) Mean,[4]; Day 12,23.13 g
same,TUMOR VOLUMES (mm^3) Mean,[4]; Day 12,191.6 mm^3
same,% INHIBITION OF CONTROL (tumor growth),[4]; Day 15,23.17%
same,TUMOR VOLUMES (mm^3) Mean,[4]; Day 15,246.48 mm^3
same,% INHIBITION OF CONTROL (tumor growth),[4]; Day 19,23.26%
same,BODY WEIGHT (g) Mean,[4]; Day 19,23.97 g
same,TUMOR VOLUMES (mm^3) Mean,[4]; Day 19,312.74 mm^3
same,% INHIBITION OF CONTROL (tumor growth),[4]; Day 22,14.93%
same,BODY WEIGHT (g) Mean,[4]; Day 22,24.55 g
same,TUMOR VOLUMES (mm^3) Mean,[4]; Day 22,411.93 mm^3
